Molecular target: hDGAT2 (Homo sapiens (Human), UniProt Q96PD7)
Test: DGAT2 enzymatic activity assay (triolein formation, LC/MS/MS)
Settings: read-out: IC50 values for inhibition of DGAT2; membrane prep of Sf-9 cells expressing hDGAT2; 25 μM diolein, 10 μM oleoyl-CoA; room temperature; triolein by LC/MS/MS

hDGAT2, sequence (Q96PD7 whole entry): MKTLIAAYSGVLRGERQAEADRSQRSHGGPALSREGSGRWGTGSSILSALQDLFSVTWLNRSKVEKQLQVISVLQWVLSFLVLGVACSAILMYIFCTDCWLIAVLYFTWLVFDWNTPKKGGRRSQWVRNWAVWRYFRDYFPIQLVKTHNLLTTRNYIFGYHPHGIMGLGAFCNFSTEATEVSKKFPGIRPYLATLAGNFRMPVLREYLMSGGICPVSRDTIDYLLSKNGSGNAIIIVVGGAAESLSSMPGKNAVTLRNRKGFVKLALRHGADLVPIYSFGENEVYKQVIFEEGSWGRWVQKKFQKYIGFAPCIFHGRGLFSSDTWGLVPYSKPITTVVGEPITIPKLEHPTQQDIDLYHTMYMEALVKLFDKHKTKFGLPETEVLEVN

SMILES | IC50 [nM]
COc1cccc(-c2ccc(CNC(=O)c3cncc(C(F)(F)F)c3)c3cnccc23)c1 [Example 119, N-((5-(3-methoxyphenyl)isoquinolin-8-yl)methyl)-5-(trifluoromethyl)nicotinamide] | 5890
COc1cccc(-c2ccc(CNC(=O)c3cc(Br)cnc3-c3ccccc3)c3cnccc23)c1 [Example 120, 5-bromo-N-((5-(3-methoxyphenyl)isoquinolin-8-yl)methyl)-2-phenylnicotinamide] | 4240
COc1cccc(-c2ccc(CNC(=O)c3cc(Br)cnc3C(F)(F)F)c3cnccc23)c1 [Example 121, 5-bromo-N-((5-(3-methoxyphenyl)isoquinolin-8-yl)methyl)-2-(trifluoromethyl)nicotinamide] | 1180
COc1cccc(-c2ccc(CNC(=O)C3(c4ccc(C(F)(F)F)cc4)CCC3)c3cnccc23)c1 [Example 123, N-((5-(3-methoxyphenyl)isoquinolin-8-yl)methyl)-1-(4-(trifluoromethyl)phenyl)cyclobutanecarboxamide] | 513
COc1cccc(-c2ccc(CNC(=O)C(F)c3ccc(C(F)(F)F)cc3)c3cnccc23)c1 (stereo not drawn) [Example 124, 2-fluoro-N-((5-(3-methoxyphenyl)isoquinolin-8-yl)methyl)-2-(4-(trifluoromethyl)phenyl)acetamide] | 2330
COc1cccc(-c2ccc(CNC(=O)C(c3ccc(C(F)(F)F)cc3)C(C)C)c3cnccc23)c1 (stereo not drawn) [Example 125, N-((5-(3-methoxyphenyl)isoquinolin-8-yl)methyl)-3-methyl-2-(4-(trifluoromethyl)phenyl)butanamide] | 2460
COc1cccc(-c2ccc(CNC(=O)c3cnccc3C(F)(F)F)c3cnccc23)c1 [Example 127, N-((5-(3-methoxyphenyl)isoquinolin-8-yl)methyl)-4-(trifluoromethyl)nicotinamide] | 1420
COc1cccc(-c2ccc(CNC(=O)C3CCN(c4ccc(C(F)(F)F)cc4)CC3)c3cnccc23)c1 [Example 128, N-((5-(3-methoxyphenyl)isoquinolin-8-yl)methyl)-1-(4-(trifluoromethyl)phenyl)piperidine-4-carboxamide] | 952
COc1cccc(-c2ccc(CNC(=O)c3cncc(-c4ccccc4)c3)c3cnccc23)c1 [Example 129, N-((5-(3-methoxyphenyl)isoquinolin-8-yl)methyl)-5-phenylnicotinamide] | 2990
COc1cccc(-c2ccc(CNC(=O)C34CC(C3)C4)c3cnccc23)c1 [Example 130, N-((5-(3-methoxyphenyl)isoquinolin-8-yl)methyl)bicyclo[1.1.1]pentane-1-carboxamide] | 268
COc1cccc(-c2ccc(CNC(=O)c3cc(Br)cnc3F)c3cnccc23)c1 [Example 131, 5-bromo-2-fluoro-N-((5-(3-methoxyphenyl)isoquinolin-8-yl)methyl)nicotinamide] | 400
COc1cccc(-c2ccc(CNC(=O)c3cnn(-c4ccccc4)c3C(F)(F)F)c3cnccc23)c1 [Example 132, N-((5-(3-methoxyphenyl)isoquinolin-8-yl)methyl)-1-phenyl-5-(trifluoromethyl)-1H-pyrazole-4-carboxamide] | 3940
COc1cccc(-c2ccc(CNC(=O)c3ccnc(C(F)(F)F)c3)c3cnccc23)c1 [Example 133, N-((5-(3-methoxyphenyl)isoquinolin-8-yl)methyl)-2-(trifluoromethyl)isonicotinamide] | 571
COc1cccc(-c2ccc(CNC(=O)C(C)c3ccc(-c4ccccc4)cc3)c3cnccc23)c1 (stereo not drawn) [Example 134, 2-([1,1′-biphenyl]-4-yl)-N-((5-(3-methoxyphenyl)isoquinolin-8-yl)methyl)propanamide] | 324
COc1cccc(-c2ccc(CNC(=O)C(C)c3cccc(F)c3)c3cnccc23)c1 (stereo not drawn) [Example 135, 2-(3-fluorophenyl)-N-((5-(3-methoxyphenyl)isoquinolin-8-yl)methyl)propanamide] | 2000
COc1cccc(-c2ccc(CNC(=O)C(C)c3ccc(C#N)cc3)c3cnccc23)c1 (stereo not drawn) [Example 136, 2-(4-cyanophenyl)-N-((5-(3-methoxyphenyl)isoquinolin-8-yl)methyl)propanamide] | 256
COc1cccc(-c2ccc(CNC(=O)C(C)c3ccc(OC(F)(F)F)cc3)c3cnccc23)c1 (stereo not drawn) [Example 137, N-((5-(3-methoxyphenyl)isoquinolin-8-yl)methyl)-2-(4-(trifluoromethoxy)phenyl)propanamide] | 484
COc1cccc(-c2ccc(CNC(=O)C(C)c3ccccc3)c3cnccc23)c1 (stereo not drawn) [Example 138, N-((5-(3-methoxyphenyl)isoquinolin-8-yl)methyl)-2-phenylpropanamide] | 298
COc1cccc(-c2ccc(CNC(=O)C(C)c3ccccc3F)c3cnccc23)c1 (stereo not drawn) [Example 139, 2-(2-fluorophenyl)-N-((5-(3-methoxyphenyl)isoquinolin-8-yl)methyl)propanamide] | 213
COc1cccc(-c2ccc(CNC(=O)C(C)c3ccc(C(F)(F)F)cc3)c3cnccc23)c1 (stereo not drawn) [Example 141, N-((5-(3-methoxyphenyl)isoquinolin-8-yl)methyl)-2-(4-(trifluoromethyl)phenyl)propanamide] | 566

SMILES | IC50 [nM]
COc1cccc(-c2ccc(CNC(=O)C(C)c3ccc4cc(OC)ccc4c3)c3cnccc23)c1 (stereo not drawn) [Example 143, 2-(6-methoxynaphthalen-2-yl)-N-((5-(3-methoxyphenyl)isoquinolin-8-yl)methyl)propanamide] | 197
COc1cccc(-c2ccc(CNC(=O)C(C)c3ccc(C4CCCCC4)c(Cl)c3)c3cnccc23)c1 (stereo not drawn) [Example 148, 2-(3-chloro-4-cyclohexylphenyl)-N-((5-(3-methoxyphenyl)isoquinolin-8-yl)methyl)propanamide] | 6890
COc1cccc(-c2ccc(CNC(=O)Cc3ccc(C(F)(F)F)cc3)c3ncccc23)c1 [Example 150, N-((5-(3-methoxyphenyl)quinolin-8-yl)methyl)-2-(4-(trifluoromethyl)phenyl)acetamide] | 426
COc1cccc(-c2ccc(CNC(=O)Nc3ccc(OC(F)(F)F)cc3)c3cnccc23)c1 [Example 151, 1-((5-(3-methoxyphenyl)isoquinolin-8-yl)methyl)-3-(4-(trifluoromethoxy)phenyl)urea] | 938
COc1cc(OC)cc(-c2ccc(CNC(=O)Nc3cccc(Cl)c3Cl)c3cnccc23)c1 [Example 152, 1-(2,3-dichlorophenyl)-3-((5-(3,5-dimethoxyphenyl)isoquinolin-8-yl)methyl)urea] | 198
COC(=O)c1ccccc1NC(=O)NCc1ccc(-c2cccc(OC)c2)c2ccncc12 [Example 153, methyl 2-(3-((5-(3-methoxyphenyl)isoquinolin-8-yl)methyl)ureido)benzoate] | 1110
COc1cccc(-c2ccc(CNC(=O)c3ccn(C)n3)c3cnccc23)c1 [Example 154, N-((5-(3-methoxyphenyl)isoquinolin-8-yl)methyl)-1-methyl-1H-pyrazole-3-carboxamide] | 3270
COc1cccc(-c2ccc(CNC(=O)Nc3cccc(-c4ccccc4)c3)c3cnccc23)c1 [Example 157, 1-([1,1′-biphenyl]-3-yl)-3-((5(3-methoxyphenyl)isoquinolin-8-yl)methyl)urea] | 116
C=C(c1ccccc1)c1ccc(CNC(=O)Nc2cccc(Cl)c2Cl)c2cnccc12 [Example 158, 1-(2,3-dichlorophenyl)-3-((5-(1-phenylyinyl)isoquinolin-8-yl)methyl)urea] | 374
COCCCc1ccc(CNC(=O)Nc2cccc(Cl)c2Cl)c2cnccc12 [Example 159, 1-(2,3-dichlorophenyl)-3-((5-(3-methoxypropyl)isoquinolin-8-yl)methyl)urea] | 478
CNC(=O)c1cccc(-c2ccc(CNC(=O)Nc3cccc(Cl)c3Cl)c3cnccc23)c1 [Example 161, 3-(8-((3-(2,3-dichlorophenyl)ureido)methyl)isoquinolin-5-yl)-N-methylbenzamide] | 1210
CC(C)(C)OC(=O)N1CC=C(c2ccc(CNC(=O)Nc3cccc(Cl)c3Cl)c3cnccc23)CC1 [Example 162, tert-butyl 4-(8-((3-(2,3-dichlorophenyl)ureido)methyl)isoquinolin-5-yl)-5,6-dihydropyridine-1(2H)-carboxylate] | 1950
O=C(O)CCc1ccc(-c2ccc(CNC(=O)Nc3cccc(Cl)c3Cl)c3cnccc23)cc1 [Example 163, 3-(4-(8-((3-(2,3-dichlorophenyl)ureido)methyl)isoquinolin-5-yl)phenyl)propanoic acid] | 2360
CC(c1ccccc1)c1ccc(CNC(=O)Nc2cccc(Cl)c2Cl)c2cnccc12 (stereo not drawn) [Example 164, 1-(2,3-dichlorophenyl)-3-((5-(1-phenylethyl)isoquinolin-8-yl)methyl)urea] | 4220
CC(C)(C)OC(=O)N1CCC=C(c2ccc(CNC(=O)Nc3cccc(Cl)c3Cl)c3cnccc23)C1 [Example 165, tert-butyl 3-(8-((3-(2,3-dichlorophenyl)ureido)methyl)isoquinolin-5-yl)-5,6-dihydropyridine-1(2H)-carboxylate] | 4310
O=C(NCc1ccc(-c2cccc(C(=O)N3CCOCC3)c2)c2ccncc12)Nc1cccc(Cl)c1Cl [Example 166, 1-(2,3-dichlorophenyl)-3-((5-(3-(morpholine-4-carbonyl)phenyl)isoquinolin-8-yl)methyl)urea] | 4410
O=C(NCc1ccc(C2=CCNC2)c2ccncc12)Nc1cccc(Cl)c1Cl [Example 167, 1-(2,3-dichlorophenyl)-3-((5-(2,5-dihydro-1H-pyrrol-3-yl)isoquinolin-8-yl)methyl)urea] | 4420
COc1cccc(-c2ccc(CNC(=O)Nc3ccccc3-c3ccccc3)c3cnccc23)c1 [Example 169, 1-([1,1′-biphenyl]-2-yl)-3-((5-(3-methoxyphenyl)isoquinolin-8-yl)methyl)urea] | 7070
COc1cccc(-c2ccc(CNC(=O)Nc3ccc(F)cc3F)c3ncccc23)c1 [Example 170, 1-(2,4-difluorophenyl)-3-((5-(3-methoxyphenyl)quinolin-8-yl)methyl)urea] | 8190

From US9828369B2, “Isoquinoline derivatives useful as inhibitors of diacylglyceride O-acyltransferase 2” (Merck Sharp & Dohme Corp., priority 2014, dated 2017)
